{"source": "patent US12594276B2", "about": "“Inhibitors of human immunodeficiency virus replication” (ViiV Healthcare UK (No.5) Limited, priority 2024, dated 2026)", "key": {"[1]": {"tested_on": "recombinant NL4-3 virus (nef section replaced with Renilla luciferase gene) in MT-2 cells", "assay": "HIV cell culture assay (antiviral activity, luciferase readout)", "type": "cell-based", "details": "Renilla, NL43, MT-2 cells infected for 4-5 days with recombinant NL4-3 Renilla luciferase virus", "how_it_was_run": "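Antiviral EC50 derived from luciferase signal using the exponential median effect equation. Infection of MT-2 cells ran 4-5 days alongside serial dilutions of compound, with virus generated by proviral clone transfection of 293T cells.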"}, "[2]": {"assay": "Compound cytotoxicity, XTT-based colorimetric assay", "type": "cell-based", "details": "human; uninfected MT2 cells, day 4, XTT; read-out: CC50", "how_it_was_run": "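Cells seeded as for the antiviral assay but left uninfected (MT2). Compound exposure continued to day 4. XTT reagent added and colour read. CC50 calculated.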"}}, "note": "pEC50: −log10 of the molar value.", "data": [{"smiles": "Cc1cc(C2(F)CCC(F)(F)CC2)nc2nc([C@H](Cc3cc(F)cc(F)c3)NC(=O)Cn3nc(C4CC4)c4c3C[C@@H]3C[C@H]43)n(-c3ccc(Cl)c4c(NS(C)(=O)=O)nn(CCc5cccnc5)c34)c(=O)c12", "note": "(relative stereo) [Example 741, N-[(1S)-1-[(3P)-3-{4-chloro-3-methanesulfonamido-1-[2-(pyridin-3-yl)ethyl]-1H-indazol-7-yl}-5-methyl-4-oxo-7-(1,4,4-trifluorocyclohexyl)-3H,4H-pyrido[2,3-d]pyrimidin-2-yl]-2-(3,5-difluorophenyl)ethyl]-2-[(2R*,4R*)-9-cyclopropyl-7,8-diazatricyclo[4.3.0.0^2,^4]nona-1(6),8-dien-7-yl]acetamide]", "values": [{"measurement": "pEC50", "setting": "[1]", "value": 10.40}, {"measurement": "CC50 at 4 days", "setting": "[2]", "value": "> 20", "unit": "nM"}]}, {"smiles": "Cc1cc(C2CCC(F)(F)CC2)nc2nc([C@H](Cc3cc(F)cc(F)c3)NC(=O)Cn3nc(C4CC4)c4c3C[C@@H]3C[C@H]43)n(-c3ccc(Cl)c4c(NS(C)(=O)=O)nn(CCN5CCC(F)CC5)c34)c(=O)c12", "note": "(atropisomer, axis not shown; (P)) [Example 277, N-[(1S)-1-[(3P)-3-{4-chloro-1-[2-(4-fluoropiperidin-1-yl)ethyl]-3-methanesulfonamido-1H-indazol-7-yl}-7-(4,4-difluorocyclohexyl)-5-methyl-4-oxo-3H,4H-pyrido[2,3-d]pyrimidin-2-yl]-2-(3,5-difluorophenyl)ethyl]-2-[(2S,4S)-9-cyclopropyl-7,8-diazatricyclo[4.3.0.0^2,^4]nona-1(6),8-dien-7-yl]acetamide]", "values": [{"measurement": "pEC50", "setting": "[1]", "value": 11.05}, {"measurement": "CC50 at 4 days", "setting": "[2]", "value": "> 50", "unit": "nM"}]}, {"smiles": "CS(=O)(=O)Nc1nn(CCN2CCC(F)(F)CC2)c2c(-n3c([C@H](Cc4cc(F)cc(F)c4)NC(=O)Cn4nc(C(F)F)c5c4C(F)(F)[C@@H]4C[C@H]54)nc4nc(C5CCC(F)(F)CC5)cc(CO)c4c3=O)ccc(Cl)c12", "note": "(atropisomer, axis not shown; (P)) [Example 675, N-[(1S)-1-[(3P)-3-{4-chloro-1-[2-(4,4-difluoropiperidin-1-yl)ethyl]-3-methanesulfonamido-1H-indazol-7-yl}-7-(4,4-difluorocyclohexyl)-5-(hydroxymethyl)-4-oxo-3H,4H-pyrido[2,3-d]pyrimidin-2-yl]-2-(3,5-difluorophenyl)ethyl]-2-[(2S,4R)-9-(difluoromethyl)-5,5-difluoro-7,8-diazatricyclo[4.3.0.0^2,4]nona-1(6),8-dien-7-yl]acetamide]", "values": [{"measurement": "pEC50", "setting": "[1]", "value": 10.51}, {"measurement": "CC50 at 4 days", "setting": "[2]", "value": "> 20", "unit": "nM"}]}, {"smiles": "COCCCn1nc(NS(C)(=O)=O)c2c(Cl)ccc(-n3c([C@H](Cc4cc(F)cc(F)c4)NC(=O)Cn4nc(C(F)F)c5c4C(F)(F)[C@@H]4C[C@H]54)nc4nc(C5(F)CCC(F)(F)CC5)cc(C)c4c3=O)c21", "note": "(atropisomer, axis not shown; (P)) [Example 553, N-[(1S)-1-[(3P)-3-[4-chloro-3-methanesulfonamido-1-(3-methoxypropyl)-1H-indazol-7-yl]-5-methyl-4-oxo-7-(1,4,4-trifluorocyclohexyl)-3H,4H-pyrido[2,3-d]pyrimidin-2-yl]-2-(3,5-difluorophenyl)ethyl]-2-[(2S,4R)-9-(difluoromethyl)-5,5-difluoro-7,8-diazatricyclo[4.3.0.0^2,^4]nona-1(6),8-dien-7-yl]acetamide]", "values": [{"measurement": "pEC50", "setting": "[1]", "value": 10.62}, {"measurement": "CC50 at 4 days", "setting": "[2]", "value": "> 20", "unit": "nM"}]}, {"smiles": "COCCNc1cc(C2CCC(F)(F)CC2)nc2nc([C@H](Cc3cc(F)cc(F)c3)NC(=O)Cn3nc(C(F)F)c4c3C(F)(F)[C@@H]3C[C@H]43)n(-c3ccc(Cl)c4c(NS(C)(=O)=O)nn(CCOC)c34)c(=O)c12", "note": "(atropisomer, axis not shown; (P)) [Example 134, N-[(1S)-1-[(3P)-3-[4-chloro-3-methanesulfonamido-1-(2-methoxyethyl)-1H-indazol-7-yl]-7-(4,4-difluorocyclohexyl)-5-[(2-methoxyethyl)amino]-4-oxo-3H,4H-pyrido[2,3-d]pyrimidin-2-yl]-2-(3,5-difluorophenyl)ethyl]-2-[(2S,4R)-9-(difluoromethyl)-5,5-difluoro-7,8-diazatricyclo[4.3.0.0^2,^4]nona-1(6),8-dien-7-yl]acetamide]", "values": [{"measurement": "pEC50", "setting": "[1]", "value": 10.66}, {"measurement": "CC50 at 4 days", "setting": "[2]", "value": "> 50", "unit": "nM"}]}, {"smiles": "Cc1cc(C2CCC(F)(F)CC2)nc2nc([C@H](Cc3cc(F)cc(F)c3)NC(=O)Cn3nc(C4CC4)c4c3C[C@@H]3C[C@H]43)n(-c3ccc(Cl)c4c(NS(C)(=O)=O)nn([C@H](C)C(=O)N5C[C@@H](C)O[C@@H](C)C5)c34)c(=O)c12", "note": "(relative stereo) [Example 679, N-[(1S)-1-[(3P)-3-{4-chloro-1-[(2R)-1-[(2R,6S)-2,6-dimethylmorpholin-4-yl]-1-oxopropan-2-yl]-3-methanesulfonamido-1H-indazol-7-yl}-7-(4,4-difluorocyclohexyl)-5-methyl-4-oxo-3H,4H-pyrido[2,3-d]pyrimidin-2-yl]-2-(3,5-difluorophenyl)ethyl]-2-[(2R*,4R*)-9-cyclopropyl-7,8-diazatricyclo[4.3.0.0^2,^4]nona-1(6),8-dien-7-yl]acetamide]", "values": [{"measurement": "pEC50", "setting": "[1]", "value": 10.92}, {"measurement": "CC50 at 4 days", "setting": "[2]", "value": "> 20", "unit": "nM"}]}, {"smiles": "COCCCn1nc(NS(C)(=O)=O)c2c(Cl)ccc(-n3c([C@H](Cc4cc(F)cc(F)c4)NC(=O)Cn4nc(C(F)F)c5c4C(F)(F)[C@@H]4C[C@H]54)nc4nc(C5CCC(F)(F)CC5)cc(NCCOC)c4c3=O)c21", "note": "(atropisomer, axis not shown; (P)) [Example 135, N-[(1S)-1-[(3P)-3-[4-chloro-3-methanesulfonamido-1-(3-methoxypropyl)-1H-indazol-7-yl]-7-(4,4-difluorocyclohexyl)-5-[(2-methoxyethyl)amino]-4-oxo-3H,4H-pyrido[2,3-d]pyrimidin-2-yl]-2-(3,5-difluorophenyl)ethyl]-2-[(2S,4R)-9-(difluoromethyl)-5,5-difluoro-7,8-diazatricyclo[4.3.0.0^2,4]nona-1(6),8-dien-7-yl]acetamide]", "values": [{"measurement": "pEC50", "setting": "[1]", "value": 10.89}, {"measurement": "CC50 at 4 days", "setting": "[2]", "value": "> 50", "unit": "nM"}]}, {"smiles": "CS(=O)(=O)Nc1nn(CCN2C[C@H](F)C[C@H](F)C2)c2c(-n3c([C@H](Cc4cc(F)cc(F)c4)NC(=O)Cn4nc(C(F)F)c5c4C(F)(F)[C@@H]4C[C@H]54)nc4nc(C5CCC(F)(F)CC5)cc(C(F)F)c4c3=O)ccc(Cl)c12", "note": "(atropisomer, axis not shown; (P)) [Example 291, N-[(1S)-1-[(3P)-3-(4-chloro-1-{2-[(3R,5S)-3,5-difluoropiperidin-1-yl]ethyl}-3-methanesulfonamido-1H-indazol-7-yl)-7-(4,4-difluorocyclohexyl)-5-(difluoromethyl)-4-oxo-3H,4H-pyrido[2,3-d]pyrimidin-2-yl]-2-(3,5-difluorophenyl)ethyl]-2-[(2S,4R)-9-(difluoromethyl)-5,5-difluoro-7,8-diazatricyclo[4.3.0.0^2,^4]nona-1(6),8-dien-7-yl]acetamide]", "values": [{"measurement": "pEC50", "setting": "[1]", "value": 10.92}, {"measurement": "CC50 at 4 days", "setting": "[2]", "value": "> 50", "unit": "nM"}]}, {"smiles": "CS(=O)(=O)Nc1nn(CCN2CC(C(F)F)C2)c2c(-n3c([C@H](Cc4cc(F)cc(F)c4)NC(=O)Cn4nc(C(F)F)c5c4C(F)(F)[C@@H]4C[C@H]54)nc4nc(C5CCC(F)(F)CC5)cc(C(F)F)c4c3=O)ccc(Cl)c12", "note": "(atropisomer, axis not shown; (P)) [Example 315, N-[(1S)-1-[(3P)-3-(4-chloro-1-{2-[3-(difluoromethyl)azetidin-1-yl]ethyl}-3-methanesulfonamido-1H-indazol-7-yl)-7-(4,4-difluorocyclohexyl)-5-(difluoromethyl)-4-oxo-3H,4H-pyrido[2,3-d]pyrimidin-2-yl]-2-(3,5-difluorophenyl)ethyl]-2-[(2S,4R)-9-(difluoromethyl)-5,5-difluoro-7,8-diazatricyclo[4.3.0.0^2,^4]nona-1(6),8-dien-7-yl]acetamide]", "values": [{"measurement": "pEC50", "setting": "[1]", "value": 10.60}, {"measurement": "CC50 at 4 days", "setting": "[2]", "value": "> 50", "unit": "nM"}]}, {"smiles": "CS(=O)(=O)Nc1nn(CCN2CCC(F)(C(F)(F)F)C2)c2c(-n3c([C@H](Cc4cc(F)cc(F)c4)NC(=O)Cn4nc(C(F)F)c5c4C(F)(F)[C@@H]4C[C@H]54)nc4nc(C5CCC(F)(F)CC5)ccc4c3=O)ccc(Cl)c12", "note": "(stereo partly drawn) [Example 191, N-[(1S)-1-[(3P)-3-(4-chloro-1-{2-[3-fluoro-3-(trifluoromethyl)pyrrolidin-1-yl]ethyl}-3-methanesulfonamido-1H-indazol-7-yl)-7-(4,4-difluorocyclohexyl)-4-oxo-3H,4H-pyrido[2,3-d]pyrimidin-2-yl]-2-(3,5-difluorophenyl)ethyl]-2-[(2S,4R)-9-(difluoromethyl)-5,5-difluoro-7,8-diazatricyclo[4.3.0.0^2,^4]nona-1(6),8-dien-7-yl]acetamide]", "values": [{"measurement": "pEC50", "setting": "[1]", "value": 10.62}, {"measurement": "CC50 at 4 days", "setting": "[2]", "value": "> 50", "unit": "nM"}]}, {"smiles": "CS(=O)(=O)Nc1nn(CCN2CC3C(C2)C(F)(F)C3(F)F)c2c(-n3c([C@H](Cc4cc(F)cc(F)c4)NC(=O)Cn4nc(C(F)F)c5c4C(F)(F)[C@@H]4C[C@H]54)nc4nc(C5CCC(F)(F)CC5)ccc4c3=O)ccc(Cl)c12", "note": "(stereo partly drawn) [Example 214, N-[(1S)-1-[(3P)-3-[4-chloro-3-methanesulfonamido-1-(2-{6,6,7,7-tetrafluoro-3-azabicyclo[3.2.0]heptan-3-yl}ethyl)-1H-indazol-7-yl]-7-(4,4-difluorocyclohexyl)-4-oxo-3H,4H-pyrido[2,3-d]pyrimidin-2-yl]-2-(3,5-difluorophenyl)ethyl]-2-[(2S,4R)-9-(difluoromethyl)-5,5-difluoro-7,8-diazatricyclo[4.3.0.0^2,^4]nona-1(6),8-dien-7-yl]acetamide]", "values": [{"measurement": "pEC50", "setting": "[1]", "value": 10.82}, {"measurement": "CC50 at 4 days", "setting": "[2]", "value": "> 50", "unit": "nM"}]}]}
